Data taken from patent US20240199557A1, “METHODS OF MAKING 1-BENZYL-4-PHENYL-1H-1,2,3-TRIAZOLE (BPT) AND BPT COATED STRUCTURES” (BOARD OF REGENTS, THE UNIVERSITY OF TEXAS SYSTEM, priority 2022, published 2024).

Columns and labels:
[1] = Linear polarization resistance (LPR): corrosion rate and inhibitor efficiency of steel rebar in synthetic pore solution
From the text: (§1) The steel cylinder working electrode (WE) were cross-sectioned and encased in epoxy. The surface was polished using 120 grit to 600 grit SiC paper, resulting in an exposed area of 0.499±0.01 cm^2. A Pt mesh was used as the counter electrode (CE). In terms of the reference electrodes (RE), a Saturated Calomel Electrode (SCE) was used for solutions with chloride and a Mercury Mercurous Sulfate Electrode (MSE) for solutions without chloride, satisfying the electrochemical cell requirements of ASTM standard G5 [38]. Though the experiments without chlorides were measured with MSE, the results were converted to SCE.
(§2) The WE, RE, and CE were placed in a test cell containing a synthetic pore solution (SPS). This SPS mimics the concrete pore environment and followed a formula consisting of 8.33 g/L NaOH+23.3 g/L KOH+2.0 g/L Ca(OH)2 (pH:13.6). These solutions were prepared using deionized water from a Milli-Q Water Purification System (resistivity: 18.2-18.7 MΩ·cm) and analytically pure grade reagents.
The testing procedure involved an initial pH measurement of the solution followed by purging the cell with CO2-free air (300 cc/min or more) for 5 minutes, prior to introducing the WE and throughout the experiment to reduce the effects of carbonation. More details can be found elsewhere. 2 M NaCl was chosen for the experiments since previously tested concentrations were not able to break the passive film generated in this highly alkaline environment. After chloride addition, the electrolyte was stirred for 4 h, while continuing to purge with CO2-free air. Then stirring stopped and purging was continued for 20 h to allow for passivation of the substrate. […]
The results of the LPR measurements for the different conditions tested are presented in FIG. 3 as CR, which was determined using an estimated Stem-Geary coefficient (B) of 26 mV (corroding bars) and Rp values calculated, all following ASTM G59 [72, 73]. […]
The efficiency (IE, %) of the BPT was calculated using the CR results when Cl^− was added to the control solution (CRSPS) and solutions containing BPT (CRBPT), using Equation (1). […]

[2] = Anodic cyclic polarization (CYP): pitting potential
From the text: as §1, §2
The testing procedure involved an initial pH measurement of the solution followed by purging the cell with CO2-free air (300 cc/min or more) for 5 minutes, prior to introducing the WE and throughout the experiment to reduce the effects of carbonation. More details can be found elsewhere. 2 M NaCl was chosen for the experiments since previously tested concentrations were not able to break the passive film generated in this highly alkaline environment. After chloride addition, the electrolyte was stirred for 4 h, while continuing to purge with CO2-free air. Then stirring stopped and purging was continued for 20 h to allow for passivation of the substrate. […] This procedure is similar to ASTM G180 [41]. The difference is related to the use of SPS instead of a cement slurry. Using a Gamry Reference 600+Potentiostat, different electrochemical tests were performed including open circuit potential (OCP), linear polarization resistance (LPR) and Anodic Cyclic Polarization (CYP).
LPR tests were performed from −0.030 V to +0.030 V from OCP, with a scan rate of 0.167 mV/s, in accordance with ASTM G59. CYP ran at a scan rate of 0.167 mV/s, beginning at 0.030 V more negative than the OCP with a maximum i of 1 mA/cm^2. Tests were performed to verify that pitting was occurring and not crevice corrosion occurred during CYP. After each experiment, the specimen was rinsed with D.I. water, degreased with ethanol, and dried. Surface images were taken using BX53 Olympus microscope to evaluate the corrosion morphology. […]
It is observed that for all conditions evaluated the passive film on the steel was formed, but the pitting potential (Ep) changed, being higher with the increase in BPT concentration (Table 3).

[3] = Stability/solubility of BPT in SPS and co-dissolvers; assay type: physicochemical
Method: Initial tests were run to find the stability/solubility of BPT in SPS. […] Several co-dissolvers were tested (ethyl alcohol 95%, isopropyl alcohol, acetone, dimethylsulfoxide, dimethylformamide, ethylenglycol, diethylenglycol, and 1-Methyl-2-pyrrolidinone), to aid in the solubility of the BPT in SPS. From these co-dissolvers, the organic compound N-methyl-2-pyrrolidone (NMP) performed the best and was selected at a concentration of 2.35 mg of BPT/mL of NMP (BPT saturated NMP solution).

[4] = XRD quantitative phase analysis of carbon steel discs after immersion
Method: Four 3 mm height discs were cut from […] diameter steel rebar and one of their flat faces was polished using silicon carbide sandpaper with 250, 400 and, 600 grit. Subsequently each disc was immersed for 90 seconds in 10 mL of a freshly prepared Clarke solution [42], rinsed thoroughly with water, acetone and dried under a soft stream of dry N2. The crystalline structure of the samples was analyzed on their sheeny face employing X-Ray powder diffraction (XRD) using a Bruker D8 Advance Eco diffractometer applying Cu-Kα1,2 radiation. All samples were scanned at 40 kV and 25 mA in the […] of 31-66° and 2.0 s of step time per 2θ=0.019°. The crystalline planes used to perform the quantitative phase analysis (QPA) are for iron at 2θ=44.6°; [2,0,0] for lepidocrocite at 2θ=47.4° and, [2,2,0] for goethite at 2θ=33.6°.
Subsequently, each one of the discs was immersed in a solution with the composition as described on Table 5 and their surfaces were analyzed using XRD four weeks later. The diffraction patterns are shown in FIG. 9 and the quantitative phase analysis (QPA) data is given on Table 6.

[5] = A36 mild steel, 1M HCl, 298 K; 2.311 mm/year without inhibitor; cited from earlier work

Ep (pitting potential) ([2]; 1 mM BPT in SPS, 2M NaCl): 149.25 mV vs. SCE
Ep (pitting potential) ([2]; 2 mM BPT in SPS, 2M NaCl): 404.04 mV vs. SCE
Ep (pitting potential) ([2]; 3 mM BPT in SPS, 2M NaCl): 302.06 mV vs. SCE
Ep (pitting potential) ([2]; Adj. 3 mM BPT+NMP (hydroxide concentration adjusted to SPS), 2 M NaCl): 429.53±1.29 mV vs. SCE
stability in SPS ([3]; alkaline solution (SPS, pH 13.6)): stable in the alkaline solution
concentration of BPT saturated NMP solution ([3]; in N-methyl-2-pyrrolidone (NMP)): 2.35 mg of BPT/mL of NMP
solubility in water ([3]; water): unable to dissolve in water
SMILES: c1ccc(Cn2cc(-c3ccccc3)nn2)cc1 [BPT, 1-Benzyl-4-Phenyl-1H-1,2,3-triazole]
efficiency (IE, %) ([1]; 3 mM BPT in SPS with 2 M NaCl, calculated from CR by Equation (1)): 85.2%
concentrations at which BPT can inhibit the corrosion of carbon steel rebar ([1]; SPS with 2 M NaCl): higher than 2 mM
optimal concentration of BPT to inhibit corrosion on carbon steel rebar ([1]; SPS with 2 M NaCl): 3 mM
AFe/AGoe ([4]; SPS with NaCl in presence of BPT): 0
AFe/ALep ([4]; disc 4: SPS + 2M NaCl + NMP + 3 mM BPT, four-week immersion): 26,908
corrosion kinetics (corrosion rate) with BPT [5]: 0.429 mm/year
